How the values were obtained:
[1] = system: Ki67 on FFPE tonsil tissue; experiment: HRP DAB amplified by QMP-biotin with various leaving groups; conditions: CHES pH 10.0, ultraView DAB control; for signal resolution and intensity compared to the control slide: monofluoro 400 nM, acetate and methoxy 100 μM; for staining intensity and signal diffusion compared to the control slide: quaternary amine leaving groups, 100 μM
Method: (b) Quinone methide analog precursor amplified DAB (FIGS. 21(B)-(D)). The tissue was deparaffinized and retrieved as described in the general procedures. Rabbit-anti-Ki-67 antibody incubation (37° C., 16 minutes) and washing were followed by secondary antibody incubation with a goat polyclonal anti-rabbit antibody conjugated to AP (37° C.; 12 minutes). After incubating with the AP conjugate the slides were washed with Special Stains wash. Pyridine QMP-biotin (100 μM) (FIG. 21(B)) or DABCO QMP-biotin (100 μM) (FIG. 21(C)) or triethylamine QMP-biotin (100 μM) (FIG. 21(D)) was dissolved in 100 mM CHES, pH 10.0, 0.05% Brij-35 to a final concentration of 100 nM. QMP turnover was achieved by adding 100 μL of AP Enhancer followed by 100 μL of biotin labeled QMP and incubating at 37° C. for 16 minutes. The deposited hapten was subsequently bound by streptavidin-HRP conjugate (37° C.; 8 minutes), and visualized via a brown precipitate produced by HRP upon the addition of hydrogen peroxide and DAB (37° C.; 8 minutes). The DAB was toned by the addition of copper sulfate (37° C.; 4 minutes). The stained tissue sections were counterstained with modified Mayer's hematoxylin (37° C.; 4 minutes) and then incubated with Bluing Reagent (37° C.; 4 minutes). They were then dehydrated through a graded ethanol series, cleared with xylene, and manually cover-slipped.
(§1) (b) QMP amplified DAB (FIGS. 22(B)-22(D)). The tissue was deparaffinized and retrieved as described in the general procedures. Rabbit-anti-Ki-67 antibody incubation (37° C., 16 minutes) and washing were followed by secondary antibody incubation with a goat polyclonal anti-rabbit antibody conjugated to AP (37° C.; 12 minutes). After incubating with the AP conjugate the slides were washed with Special Stains wash. Monofluoro QMP-biotin (400 nM) (FIG. 22(B)) or acetate QMP-biotin (100 μM) (FIG. 22(C)) or methoxy QMP-biotin (100 μM) (FIG. 22(D)) was dissolved in 100 mM CHES, pH 10.0, 0.05% Brij-35 to a final concentration of 100 nM. QMP turnover was achieved by adding 100 μL of AP Enhancer followed by 100 μL of biotin labeled QMP and incubating at 37° C. for 16 minutes. The deposited biotin was subsequently bound by a streptavidin-HRP conjugate (37° C.; 8 minutes), and visualized via a brown precipitate produced by HRP upon the addition of hydrogen peroxide and DAB (37° C.; 8 minutes). The DAB was toned by the addition of copper sulfate (37° C.; 4 minutes). The stained tissue sections were counterstained with modified Mayer's hematoxylin (37° C.; 4 minutes) and then incubated with Bluing Reagent (37° C.; 4 minutes). They were then dehydrated through a graded ethanol series, cleared with xylene, and manually cover-slipped.

[2] = system: BCL6 on FFPE tonsil tissue; experiment: AP-based CARD IHC with biotinylated QM precursor followed by DAB detection
Method: Detection 1—HRP DAB. After incubating with the AP conjugate the slides were washed with Special Stains wash (VMSI #860-015). QMP reagents were dissolved in 100 mM CHES (3-cyclo-hexylamino-ethylsulfonic acid), pH 10.0, 0.05% Brij-35. QMP turnover was achieved by adding 100 μL of AP Enhancer (VMSI #253-2182) followed by 100 μL of hapten labeled QMP and incubating at 37° C. for 16 minutes. Compound 29 is an exemplary hapten-QMP that could be used according to this method. The deposited hapten was subsequently bound by a mouse-anti-hapten-HRP conjugate (or streptavidin-HRP) (37° C.; 8 minutes), and visualized via a brown precipitate produced by HRP upon the addition of hydrogen peroxide and DAB (37° C.; 8 minutes). The DAB was toned by the addition of copper sulfate (37° C.; 4 minutes). The stained tissue sections were counterstained with modified Mayer's hematoxylin (Hematoxylin II, VMSI #790-2208) (37° C.; 4 minutes) and then incubated with Bluing Reagent (VMSI #760-2037) (37° C.; 4 minutes). The slides were then dehydrated through a graded ethanol series, cleared with xylene, and manually cover-slipped.
Both compounds utilize fluoride as the leaving group, but the reactivity of the QM derived from difluoro compound 58 should be considerably lower than monofluoro 7 due to the electronic stabilization offered by the geminal fluorine atom. […] Therefore, the difluoro QM precursor compound 58 was evaluated first for IHC staining performance on FFPE tissue using the nuclear marker BCL6 on FFPE tonsil tissue as a model system. The biotin-labeled difluoro QM precursor successfully bound to the sample as evidenced by subsequent biotin visualization using diaminobenzidine (DAB) detection. FIG. 18 provides microphotographs illustrating the detection level at varying concentrations of the difluoro QM precursor in a Tris buffer at pH=8.5 (panel A—DAB control, panel B—1 μM, panel C—10 μM and panel D—20 μM). In addition, significant amplification of signal was observed compared to the DAB control sample when on-slide concentrations of difluoro QM precursor compound 58 greater than […] were utilized.
To test the effect of pH on signal diffusion, difluoro QM precursor compound 58 was deposited as before at various pH levels within the working range for AP (7-12 with two shoulders of maximal activity at pH=8.5 and 11). The nuclear marker BCL6 on FFPE tonsil tissue was again chosen as the model. Positive staining was observed across the entire pH range, although a balance between overall signal and diffusion was seen. FIG. 19, panels A-H provide microphotographs of the detection levels of 20 µM QM precursor in Tris buffer with varying pH: panel A—DAB control; panel B pH=7.0; panel C pH=8.0; panel D pH=8.5; panel E pH=9.0; panel F pH=10.0; panel G pH=11.0; panel H pH=12.0. The diffusion appears to decrease with increasing pH. […] The level of amplification increased only as the pH rose to 8.5 and then decreased gradually over the rest of the range. This effect may be due to a combination of enzyme activity and the population of QM quenchers in the reaction media. At pH levels well below the optimal AP reaction conditions (7.0), the activity of AP was depressed, resulting in low signal. As the pH increased (8.0-8.5) but remained near the pKa of Tris (8.1), the activity of AP increased at a faster rate than the population of quenchers in the reaction media, leading to a significant increase in signal. Raising the pH further (9-10) increased the quencher population while decreasing AP activity, resulting in a decrease of signal. Although AP had maximal activity at pH 11 in Tris, a slight decrease in staining intensity was observed, most likely due to the excessively high population of quenchers that could not be overcome by the increased AP activity (raising the pH from 8.5 to 11 increases [Tris base] about 50%, with AP activity increasing by only about 20%). […]

[3] = Accelerated stability study in Buffer A (50/50 DMSO and 10 mM glycine buffer pH 2.0); assay type: physicochemical; conditions: 20-25 °C
Method: With an understanding of the degradation pathways and characteristics, a solvent system was designed for the purpose of extending shelf-life of QMP compounds. […] At elevated temperature the degradation pathway described in FIG. 3C was still observed. However, at normal storage conditions (2-25° C.) the rate of decomposition of the QMP is reduced compared to 100% aqueous systems.

[4] = system: Bcl2 on FFPE tonsil tissue; experiment: HRP DAB amplified by QMP-biotin with different linkers; conditions: 100 nM, CHES pH 10.0, different linkers
Method: as §1, with “The” for “(b) QMP amplified DAB (FIGS. 22(B)-22(D)). The”, “Mouse-anti-Bcl-2” for “Rabbit-anti-Ki-67”, “anti-mouse” for “anti-rabbit”, “(with aniline amide (FIG. 23(A)), benzoic amide (FIG. 23(B)) or tyramide amide linker (FIG. 23(C)) (100” for “(400”, “nM)” for “nM) (FIG. 22(B)) or acetate QMP-biotin (100 μM) (FIG. 22(C)) or methoxy QMP-biotin (100 μM) (FIG. 22(D))”

With `CC(=O)OCc1cc(NC(=O)CCCCCNC(=O)CCCCC2SCC3NC(=O)NC32)ccc1OP(=O)(O)O` (centres unmarked) [acetate QMP-biotin, 5-(6-(5-(2-oxohexahydro-1H-thieno[3,4-d]imidazol-4-yl)pentanamido)hexanamido)-2-(phosphonooxy)benzyl acetate] the “signal resolution and intensity compared to the control slide” value [1] was “weak, very diffuse signal”.

For `CC[N+](CC)(CC)Cc1cc(NC(=O)CCCCCNC(=O)CCCCC2SCC3NC(=O)NC32)ccc1OP(=O)(O)O` (centres unmarked) [triethylamine QMP-biotin, N,N-diethyl-N-(5-(6-(5-(2-oxohexahydro-1H-thieno[3,4-d]imidazol-4-yl)pentanamido)hexanamido)-2-(phosphonooxy)benzyl)ethanaminium], the “staining intensity and signal diffusion compared to the control slide” value [1] was “much lower staining intensity and greatly diffuse signals”.

In the case of `O=C(CCCCC1SCC2NC(=O)NC21)NCCCCCC(=O)Nc1ccc(OP(=O)(O)O)c(C(F)F)c1` (centres unmarked) [Compound 58], the “diffusion at the upper end of the pH range” value ([2]; Tris buffer, pH 7-12) is reported as “still too great to be of clinical use for IHC”, the “on-slide concentration at which significant amplification of signal was observed compared to the DAB control” value ([2]; Tris buffer, pH=8.5) is reported as “greater than 20 μM” and the “diffusion of signal, off-target staining” value ([2]; Tris buffer, pH=8.5, 1-20 μM, all cases) is reported as “increased diffusion of signal”. For the same compound, the “concentration required to give the desired level of amplification” value ([2]; pH 8.5 in Tris buffer) was 20 µM.

Compound `CN(C)c1ccc(N=Nc2ccc(S(=O)(=O)NCCOCCOCCOCCOCCOCCOCCOCCOCCC(=O)NCCCCCCNC(=O)C(F)c3ccccc3OP(=O)(O)O)cc2)cc1` (centres unmarked) [28(C)] has a QMP remaining ([3]; 0.0 days) of 100%, a QMP remaining ([3]; 1.0 days) of 100% and a QMP remaining ([3]; 4.0 days) of 100%. It also gave a QMP remaining ([3]; 8.0 days) of 100%, a QMP remaining ([3]; 10.0 days) of 100% and a QMP remaining ([3]; 14.0 days) of 100%. It also gave a QMP remaining ([3]; 17.0 days) of 100%, a QMP remaining ([3]; 25.0 days) of 97.8% and a QMP remaining ([3]; 36.0 days) of 96.7%.

In the case of `COCc1cc(NC(=O)CCCCCNC(=O)CCCCC2SCC3NC(=O)NC32)ccc1OP(=O)(O)O` (centres unmarked) [methoxy QMP-biotin, 2-(methoxymethyl)-4-(6-(5-(2-oxohexahydro-1H-thieno[3,4-d]imidazol-4-yl)pentanamido)hexanamido)phenyl dihydrogen phosphate], the “signal resolution and intensity compared to the control slide” value [1] is reported as “well resolved signal but with low intensity”.

With `O=C(CCCCC1SCC2NC(=O)NC21)NCCCCCC(=O)Nc1ccc(OP(=O)(O)O)c(C[n+]2ccccc2)c1` (centres unmarked) [pyridine QMP-biotin, 1-(5-(6-(5-(2-oxohexahydro-1H-thieno[3,4-d]imidazol-4-yl)pentanamido)hexanamido)-2-(phosphonooxy)benzyl)pyridin-1-ium] the “staining intensity and signal diffusion compared to the control slide” value [1] was “much lower staining intensity and greatly diffuse signals”.

With `O=C(CCCCC1SCC2NC(=O)NC21)NCCc1ccc(OP(=O)(O)O)c(CF)c1` (centres unmarked) [Compound 14, 2-(fluoromethyl)-4-(2-(5-(2-oxohexahydro-1H-thieno[3,4-d]imidazol-4-yl)pentanamido)ethyl)phenyl dihydrogen phosphate] the signal resolution [4] was “well resolved signals”.

In the case of `O=C(CCCCC1SCC2NC(=O)NC21)NCCCCCC(=O)Nc1ccc(OP(=O)(O)O)c(C[N+]23CCN(CC2)CC3)c1` (centres unmarked) [DABCO QMP-biotin, 1-(5-(6-(5-(2-oxohexahydro-1H-thieno[3,4-d]imidazol-4-yl)pentanamido)hexanamido)-2-(phosphonooxy)benzyl)-1,4-diazabicyclo[2.2.2]octan-1-ium], the “staining intensity and signal diffusion compared to the control slide” value [1] is reported as “much lower staining intensity and greatly diffuse signals”.

In the case of `O=C(CCCCC1SCC2NC(=O)NC21)NCCCCCC(=O)Nc1ccc(OP(=O)(O)O)c(CF)c1` (centres unmarked) [Monofluoro QMP-biotin], the “signal resolution and intensity compared to the control slide” value [1] is reported as “well resolved signal with greater or equal intensity to the control slide”.

With `CN1/C(=C/C=C/C=C/C2=[N+](CCCCCC(=O)NCCCCCCNC(=O)C(F)c3ccccc3OP(=O)(O)O)c3ccccc3C2(C)C)C(C)(C)c2ccccc21.[Cl-]` (centres unmarked) [28(D)] the QMP remaining ([3]; 0.0 days) was 99.9%, the QMP remaining ([3]; 1.0 days) was 99.8% and the QMP remaining ([3]; 4.0 days) was 95.4%. The QMP remaining ([3]; 8.0 days) was 95.6%, the QMP remaining ([3]; 10.0 days) was 95.7% and the QMP remaining ([3]; 14.0 days) was 95.1%. The QMP remaining ([3]; 17.0 days) was 95.8%, the QMP remaining ([3]; 25.0 days) was 95.5% and the QMP remaining ([3]; 36.0 days) was 94%.
